In the NIST ThermoML archive (doi:10.1016/j.jct.2009.11.010):

Key:
[1] = Liquid, Vibrating tube method
[2] = molar heat capacity at saturation pressure; conditions: Liquid

c1ccc2nc3ccccc3cc2c1 [acridine]
Conditions | mass density [kg/m3] | molar heat capacity [J/K/mol]
[1], 423.15 K | 1064.9 | –
[1], 448.15 K | 1043.7 | –
[1], 473.15 K | 1023.9 | –
[1], 498.15 K | 1005.1 | –
[1], 523.15 K | 985.4 | –
[1], 548.15 K | 964.8 | –
[2], 460 K | – | 343.6
[2], 480 K | – | 352.2
[2], 500 K | – | 360.6
[2], 520 K | – | 368.7
[2], 540 K | – | 376.4
[2], 560 K | – | 383.8
[2], 580 K | – | 390.8
[2], 600 K | – | 397.3
